The values that follow come from patent US20050239051A1, “Use of isogenic human cancer cells for high-throughput screening and drug discovery” (The Johns Hopkins University, priority 2001, published 2005).

The subject of one assay is mutant-RAS cell line. The assay can be described thus: Growth inhibition assay with parental non-GFP cell lines plated separately, PicoGreen (FIG. 6). Conditions: range of concentrations, five days. The assay is classed as cell-based, human. The method, then: FIG. 6. Structure/activity ratios (SAR's) of compounds with structural homology to TPT. Growth inhibition assays were performed using parental (non-GFP modified) cell lines. Cells were plated separately at low density in 96 well plates and exposed to a range of test drug concentrations for five days. Cells were then lysed in H2O, and lysates assayed for relative cell number using the dsDNA-binding dye (PicoGreen).
Secondary screens on primary screen hits were performed as above except that a drug concentration range was used, typically extending from 30 ng/ml to 4 μg/ml. […] Assays using non-GFP modified cell lines were performed using cells plated separately rather than co-cultured. Plates were harvested each day for assessment of cell number using either an MTT assay or using the DNA-binding dye PicoGreen (Molecular Probes, Eugene, Oreg.). MTT assays were performed according to the manufacturers instructions (Trevigen, Gaithersburg, Md.). PicoGreen assays were performed by lysing cells in 96-well plates in 200 μl H2O, triturating and then transferring a 10 μl aliquot from each well to […] of PigoGreen solution (# P-7581) diluted to 0.5% vol/vol in Tris-EDTA (TE) buffer.

For assay [1], the system named is KO cells (DKS-8, mutant c-Ki-Ras allele deleted). The assay can be described thus: Co-culture fluorescence growth inhibition screen, KO cells (YFP). It counts as cell-based, human. Particulars: concentration and time course experiments, co-cultured cells (FIG. 5). The source says: (§1) FIG. 1. Schematic of drug screening format using co-cultured isogenic cells modified with spectrally distinct green fluorescent protein (GFP) variants. DLD-1 cells, harbouring a mutant c-Ki-RAS allele plus a wild-type (wt) c-Ki-RAS allele, were modified to stably express a GFP variant that is excited at 530 nm (YFP). An isogenic clone (KO) in which only the mutant c-Ki-RAS allele has been deleted (Adegboyega et al., Arch. Pathol. Lab. Med., 121:1063-68, 1997) was modified to express a GFP variant that is excited at 390 nm (BFP). These cells were mixed and plated at low density in 96-well plates. […] Plates were assayed every day for six days using a fluorescence plate reader to obtain growth curves for each cell line in every well of the plate.
(§2) FIG. 5. […] Growth curves were obtained from fluorescence at 390ex/508em (DLD-1) and 530ex/590em (KO). […]
(§3) Fluorescent cell lines were harvested by trypsinization and resuspended together as a mixture containing 22,000 cells/ml (DLD-1) and 18,000 cells/ml (KO) in DMEM media supplemented with 10% FCS (HyClone, Logan, Utah). […] Each well of column 1 contained […] of the growth medium without cells as a control for computing background fluorescence. […] Fluorometry data from each day's read were exported to a custom program (Drugmobile) for plotting the growth curves of each cell line in each well of the 96-well plate. […]

For a further assay, the system named is c-Jun kinases. The assay can be described thus: In vitro kinase assay, c-Jun kinases. It counts as biochemical. Particulars: in vitro kinase assays (data not shown). The source says:
(§4) No anti-proliferative activity has previously been described for TPT. Tetrazole compounds such as TPT are commonly used as histological reagents that are reduced by cellular dehydrogenases in viable cells to a coloured formazan dye (Adegboyega et al., Arch. Pathol. Lab. Med., 121:1063-68, 1997, Otero et al., Cytotechnology, 6:137-42, 1991). However, no obvious staining of cells was observed using TPT at the concentrations used in the present assays. […] A previously identified inhibitor of p38 mitogen activated kinase (SB203580) (Cuenda et al., FEBS Lett., 364:229-33, 1995, Liverton et al., J. Med. Chem., 42:2180-90, 1999) was also noted to be structurally similar to TPT (FIG. 6). […] It is therefore unclear whether kinases represent cellular targets for TPT.

The target of another assay is c-Raf-1 (Homo sapiens, UniProt P04049). The assay can be described thus: In vitro kinase assay, c-Raf-1. It counts as biochemical. Particulars: in vitro kinase assays (data not shown).
Text: as §4

The test system of assay [2] is DLD-1 cells (mutant c-Ki-Ras). The assay can be described thus: Co-culture fluorescence growth inhibition screen, DLD-1 cells (BFP). It counts as cell-based, human.
Text: as §1, §2, §3

The target of another assay is p38 (Homo sapiens, UniProt Q16539). The assay can be described thus: In vitro kinase assay, p38. It counts as biochemical. Conditions: in vitro kinase assays (data not shown).
Text: as §4

Assay [3] relates to downstream components of the RAS pathway. Conditions: previously shown (Cardenas 1998; Campbell 1994); cited from earlier work.

Sequence of p38 (Q16539 whole entry): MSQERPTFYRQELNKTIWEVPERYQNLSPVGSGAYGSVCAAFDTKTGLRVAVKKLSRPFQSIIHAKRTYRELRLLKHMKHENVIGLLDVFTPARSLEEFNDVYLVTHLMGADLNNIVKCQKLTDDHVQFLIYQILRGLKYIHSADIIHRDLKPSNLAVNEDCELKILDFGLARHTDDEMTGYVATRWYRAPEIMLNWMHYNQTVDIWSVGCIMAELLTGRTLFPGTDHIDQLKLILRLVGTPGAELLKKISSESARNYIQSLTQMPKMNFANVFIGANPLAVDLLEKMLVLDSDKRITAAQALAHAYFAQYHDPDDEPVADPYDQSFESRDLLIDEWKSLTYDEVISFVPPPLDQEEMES
Sequence of c-Raf-1 (P04049 whole entry): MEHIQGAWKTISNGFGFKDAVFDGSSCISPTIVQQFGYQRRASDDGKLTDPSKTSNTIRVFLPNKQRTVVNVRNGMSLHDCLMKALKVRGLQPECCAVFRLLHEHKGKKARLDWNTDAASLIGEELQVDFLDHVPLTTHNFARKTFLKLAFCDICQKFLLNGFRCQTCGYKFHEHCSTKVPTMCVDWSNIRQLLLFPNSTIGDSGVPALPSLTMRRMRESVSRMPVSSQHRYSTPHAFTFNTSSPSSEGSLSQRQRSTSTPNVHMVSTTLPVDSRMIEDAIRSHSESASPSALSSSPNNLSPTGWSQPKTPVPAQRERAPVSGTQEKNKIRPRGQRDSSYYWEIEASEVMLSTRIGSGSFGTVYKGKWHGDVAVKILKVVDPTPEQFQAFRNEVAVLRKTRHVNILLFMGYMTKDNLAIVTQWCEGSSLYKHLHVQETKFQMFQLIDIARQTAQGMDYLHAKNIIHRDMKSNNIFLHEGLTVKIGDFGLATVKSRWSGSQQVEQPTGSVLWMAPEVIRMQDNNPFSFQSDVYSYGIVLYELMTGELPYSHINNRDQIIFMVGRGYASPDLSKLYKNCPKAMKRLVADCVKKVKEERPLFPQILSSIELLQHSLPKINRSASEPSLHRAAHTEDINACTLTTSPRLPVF

As for `C[S+]([O-])c1ccc(-c2nc(-c3ccncc3)c(-c3ccc(F)cc3)[nH]2)cc1` (centres unmarked) [SB203580], the “selectivity towards the mutant RAS-containing line” value in the assay on mutant-RAS cell line is recorded as “failed to show selectivity”.

Turning to `c1ccc(-c2nn(-c3ccccc3)[n+](-c3ccccc3)n2)cc1` [TPT, Triphenyltetrazolium], the “IC50 on KO” value in assay [1] is around 12 µg/mL. In the assay on c-Jun kinases, the “inhibition of c-Jun kinases” value is “little or no reproducible inhibition”. On c-Raf-1, the “inhibition of c-Raf-1” value was “little or no reproducible inhibition”. For the same compound, the “selectivity for inhibiting the growth of the mutant c-Ki-RAS cell line (DLD-1)” value in assay [2] (DLD-1 versus KO) is around 6 fold. Moreover, the “IC50 on DLD-1” value in assay [2] (concentration and time course experiments, co-cultured cells (FIG. 5)) was around 2 µg/mL. On p38, the “inhibition of p38” value was “little or no reproducible inhibition”.

With `C[C@@]12c3ccc4c(c3C(=O)c3occ(c31)C(=O)C[C@H]2O)CCC4=O` [demethoxyviridin], in assay [3], the “inhibition of downstream components of the RAS pathway” value is “inhibit downstream components of the RAS pathway”.
